Measurements taken from patent publication US20170029355A1, “LABILE ESTERS OF AGROCHEMICALS FOR CONTROLLED RELEASE AND REDUCTION OF OFF-SITE MOVEMENT” (Monsanto Technology LLC, priority 2011, published 2017).

Assays:
[1] = Solubility of the esters (statements of the description); type: physicochemical; details: qualitative
[2] = In vitro photo-release and hydrolytic release of dicamba in an aqueous medium (Example 36); type: physicochemical; details: 0.01 mM (0.005 mM for diesters)
Procedure: This Example describes the determination of photo-lability and hydrolytic lability of dicamba esters in an aqueous medium. 1 mM solutions of the esters were prepared in acetonitrile (or […] solutions of dicamba diesters). The solutions were then diluted with deionized water to a concentration of 0.01 mM (or 0.005 mM for diesters). The solutions were then transferred to quartz tubes and amber bottles and held in a growth chamber by the procedure of Example 26. A 14-hour day was generally used at a constant temperature of 35° C. Hydrolytic activity was assessed by measuring the increase in dicamba concentration after day zero in the amber (dark) bottles. […] Photolysis manifested itself as increased conversion in the quartz tubes compared to the dark control.
This Example provides the results of an aqueous lability test following the protocol of Example 35 for several dicamba esters which convert to dicamba primarily by hydrolysis. As shown by the results in the table below, conversion of the dark controls generally equaled or exceeded conversion in the photolysis solutions.

broadleaf weeds = test: Control of broadleaf weeds by ester concentrates (statements of the description); type: in vivo; details: emulsifiable and suspension concentrates; Sesbania macrocarpa, morning glory, velvetleaf, Palmer amaranth, fat hen, sicklepod
hemp sesbania = test: Field testing of emulsifiable concentrates, post-emergent control (Example 40); type: in vivo
Procedure: (§1) Three dicamba esters, 30a, 32a, and 36a, were formulated as emulsifiable concentrates for field testing. All surfactants are commercial materials from Stepan.
(§2) The formulations were tested in the field. Locations and timing were identical for the three esters, but differed slightly for the diglycolamine control. The esters were compared to the diglycolamine salt of dicamba (CLARITY™) for post-emergent control of three broadleaf weeds: velvetleaf, morning glory, and hemp sesbania. Rates of 280 and 560 g dicamba acid equivalent per hectare were used.

morning glory = test: as above; type: in vivo
Procedure: as §1, §2

velvetleaf [3] = test: as above; type: in vivo
Procedure: as §1, §2

velvetleaf [4] = test: Greenhouse post-emergent control of velvetleaf by emulsifiable concentrates (Example 37); type: in vivo; details: Abutilon theophrasti, post-emergence, 504 h, greenhouse, Example 37; for pest or weed control at 140 g/ha: read-out: % Control of velvetleaf, 140 g/ha; for pest or weed control at 280 g/ha: read-out: % Control of velvetleaf, 280 g/ha; for pest or weed control at 420 g/ha: read-out: % Control of velvetleaf, 420 g/ha; for pest or weed control at 560 g/ha: read-out: % Control of velvetleaf, 560 g/ha
Procedure: (§3) The efficacy of some photo-labile ester formulations from Example 28 for post-emergent control of velvetleaf was tested in the greenhouse. All formulations were tested at rates of 140, 280, 420, and 560 g dicamba equivalent per hectare rates and compared to the diglycolamine salt of dicamba (CLARITY®) at the same rates and untreated control plants. The velvetleaf plants were 10-15 cm in height at the time of spraying. Percent control was evaluated three weeks after treatment.
The methodology of Example 29 was used to evaluate the efficacy of several esters of dicamba which convert to dicamba by hydrolysis for post-emergent control of velvetleaf as emulsifiable concentrate formulations.

[5] = Photolysis / cleavage of the esters to dicamba (statements of the description); type: physicochemical; details: qualitative
From the text: The efficacy of the photolabile esters can be assayed in vitro, or in greenhouse or field experiments. A useful in vitro assay for post-emergent activity involves photolysis of a dilute solution of the esters using simulated sunlight. This is conveniently achieved by photolysis of a solution of the ester in an organic solvent which is miscible with water and to which some water has been added. As described in the Examples, photolysis in acetonitrile or tetrahydrofuran containing 10% water by weight is effective. Low concentrations of the ester should be used so that the entire volume is exposed to sunlight. Since the maximum extinction coefficient of the typical esters above 220 nm is in the range of 1000-10,000 M^−1 cm^−1, a concentration of 0.1 mM is effective. Photolysis in a quartz tube exposed to simulated or actual sunlight is a typical protocol.

velvetleaf [6] = test: Greenhouse post-emergent control of velvetleaf by emulsifiable concentrates (Example 30); type: in vivo
Procedure: as §3
The methodology of Example 29 was used to evaluate the efficacy of several photo-labile esters of dicamba for post-emergent control of velvetleaf as emulsifiable concentrate formulations described in Example 28.

Euphorbia species = test: Field testing for post-emergent activity in the Southern Hemisphere (Example 39); type: in vivo; details: 9 as suspension concentrate, other esters as emulsifiable concentrates
Procedure: The primary weeds were Euphorbia species. Ester 9 was tested as a suspension concentrate using the formulation of Example 33 The other esters were tested as emulsifiable concentrates having the formulations shown in the table below. Akzo Nobel SPONTO EC 334 and SPONTO EC 336 along with SURFONIC CO-54 and […] (Huntsman) were used as emulsifiers and Aromatic 200 (A 200; Exxon) was used as the solvent. […] The diglycolamine salt of dicamba (CLARITYTM) was used as a comparator.

[7] = 280 g dicamba acid equivalent per hectare
[8] = 560 g dicamba acid equivalent per hectare

solubility, in words [1]	Conversion to Dicamba, Dark, Day 0 ([2]; amber (dark) bottle)	Conversion to Dicamba, Dark, Day 1 ([2]; amber (dark) bottle)	Conversion to Dicamba, Dark, Day 2 ([2]; amber (dark) bottle)	Conversion to Dicamba, Dark, Day 3 ([2]; amber (dark) bottle)	Conversion to Dicamba, Dark, Day 4 ([2]; amber (dark) bottle)	Conversion to Dicamba, Dark, Day 7 ([2]; amber (dark) bottle)	Conversion to Dicamba, Light, Day 0 ([2]; quartz tube)	Conversion to Dicamba, Light, Day 1 ([2]; quartz tube)	Conversion to Dicamba, Light, Day 2 ([2]; quartz tube)	Conversion to Dicamba, Light, Day 3 ([2]; quartz tube)	Conversion to Dicamba, Light, Day 4 ([2]; quartz tube)	Conversion to Dicamba, Light, Day 7 ([2]; quartz tube)	SMILES	photolysis / photo-release of dicamba, in words [5]	further results
–	20%	59%	61%	60%	60%	65%	20%	57%	60%	58%	59%	63%	COc1c(Cl)ccc(Cl)c1C(=O)Oc1nc(C(C)(C)C)cc(C(C)(C)C)c1C#N [Ester 36a]	–	control of a number of broadleaf weeds in field testing, in words (broadleaf weeds): proven effective; % control 19 days after treatment, 280 g/ha, Hemp sesbania (hemp sesbania; [7]): 82 ± 10%; % control 19 days after treatment, 560 g/ha, Hemp sesbania (hemp sesbania; [8]): 98 ± 2%; % control 19 days after treatment, 280 g/ha, Morning glory (morning glory; [7]): 83 ± 4%; % control 19 days after treatment, 560 g/ha, Morning glory (morning glory; [8]): 93 ± 5%; % control 19 days after treatment, 280 g/ha, Velvetleaf (velvetleaf [3]; [7]): 72 ± 25%; % control 19 days after treatment, 560 g/ha, Velvetleaf (velvetleaf [3]; [8]): 84 ± 26%; Conversion to Dicamba, Dark, Day 21 ([2]; amber (dark) bottle): 66%; Conversion to Dicamba, Light, Day 21 ([2]; quartz tube): 65%; pest or weed control at 140 g/ha (velvetleaf [4]): 15.8%; pest or weed control at 280 g/ha (velvetleaf [4]): 26.7%; pest or weed control at 420 g/ha (velvetleaf [4]): 32.5%; pest or weed control at 560 g/ha (velvetleaf [4]): 66.7%
–	–	–	–	–	–	–	–	–	–	–	–	–	COc1c(Cl)ccc(Cl)c1C(=O)OCCOCc1ccccc1[N+](=O)[O-] [Ester 4, 2-(2-Nitrobenzoxy)Ethanol Ester of Dicamba]	the rate of photolysis decreases	% Control of velvetleaf, 140 g/ha (velvetleaf [6]): 32%; % Control of velvetleaf, 280 g/ha (velvetleaf [6]): 52%; % Control of velvetleaf, 420 g/ha (velvetleaf [6]): 50%; % Control of velvetleaf, 560 g/ha (velvetleaf [6]): 51%
highly insoluble	–	–	–	–	–	–	–	–	–	–	–	–	COc1c(Cl)ccc(Cl)c1C(=O)Oc1nnc(OC(=O)c2c(Cl)ccc(Cl)c2OC)c2ccccc12 [Ester 18, Phthalhydrazide Diester of Dicamba]	–	cleavage to form dicamba, in words [5]: undergo efficient cleavage to form dicamba
–	–	–	–	–	–	–	–	–	–	–	–	–	COc1c(Cl)ccc(Cl)c1C(=O)OCCOc1ccccc1[N+](=O)[O-] [Ester 3]	the rate of photolysis decreases	% Control of velvetleaf, 140 g/ha (velvetleaf [6]): 36%; % Control of velvetleaf, 280 g/ha (velvetleaf [6]): 57%; % Control of velvetleaf, 420 g/ha (velvetleaf [6]): 40%; % Control of velvetleaf, 560 g/ha (velvetleaf [6]): 43%
readily soluble in organic solvents	6%	16%	26%	35%	41%	49%	6%	18%	26%	33%	36%	42%	COc1c(Cl)ccc(Cl)c1C(=O)Oc1ccc(OC(=O)c2c(Cl)ccc(Cl)c2OC)nn1 [Ester 17, Maleic Hydrazide Diester of Dicamba]	–	cleavage to form dicamba, in words [5]: undergo efficient cleavage to form dicamba; % control, 0.25 lb/ac (0.28 kg/hectare) (Euphorbia species; 0.25 lb dicamba a.e. per acre): 41%; % control, 0.50 lb/ac (0.56 kg/hectare) (Euphorbia species; 0.50 lb dicamba a.e. per acre): 53%; control of a number of broadleaf weeds in field testing, in words (broadleaf weeds): proven effective; Conversion to Dicamba, Dark, Day 14 ([2]; amber (dark) bottle): 60%; Conversion to Dicamba, Light, Day 14 ([2]; quartz tube): 53%; pest or weed control at 140 g/ha (velvetleaf [4]): 23.3%; pest or weed control at 280 g/ha (velvetleaf [4]): 41.7%; pest or weed control at 420 g/ha (velvetleaf [4]): 75%; pest or weed control at 560 g/ha (velvetleaf [4]): 73.3%
–	–	–	–	–	–	–	–	–	–	–	–	–	COc1c(Cl)ccc(Cl)c1C(=O)OCc1cccc([N+](=O)[O-])c1 [Ester 1c, 3-nitrobenzyl ester of dicamba]	slower and less efficient photolysis than the 2-nitrobenzyl ester	–
–	–	–	–	–	–	–	–	–	–	–	–	–	COc1c(Cl)ccc(Cl)c1C(=O)Oc1c(C)cc(C)cc1C(C)(C)C [Ester 21]	undergo photo-release of dicamba in vitro	–
significantly less soluble than 1a	–	–	–	–	–	–	–	–	–	–	–	–	COc1cc(COC(=O)c2c(Cl)ccc(Cl)c2OC)c([N+](=O)[O-])cc1OC [Ester 1b, 6-nitroveratryl ester of dicamba]	–	–

SMILES	solubility, in words [1]	Conversion to Dicamba, Dark, Day 0 ([2]; amber (dark) bottle)	Conversion to Dicamba, Dark, Day 1 ([2]; amber (dark) bottle)	Conversion to Dicamba, Dark, Day 2 ([2]; amber (dark) bottle)	Conversion to Dicamba, Dark, Day 3 ([2]; amber (dark) bottle)	Conversion to Dicamba, Dark, Day 4 ([2]; amber (dark) bottle)	Conversion to Dicamba, Dark, Day 7 ([2]; amber (dark) bottle)	Conversion to Dicamba, Light, Day 0 ([2]; quartz tube)	Conversion to Dicamba, Light, Day 1 ([2]; quartz tube)	Conversion to Dicamba, Light, Day 2 ([2]; quartz tube)	Conversion to Dicamba, Light, Day 3 ([2]; quartz tube)	Conversion to Dicamba, Light, Day 4 ([2]; quartz tube)	Conversion to Dicamba, Light, Day 7 ([2]; quartz tube)	photolysis / photo-release of dicamba, in words [5]	further results
COc1c(Cl)ccc(Cl)c1C(=O)Oc1ccc(=O)n(CCC#N)n1 [Ester 34a]	insoluble solid	3%	9%	14%	18%	23%	38%	3%	10%	14%	16%	20%	29%	–	Conversion to Dicamba, Dark, Day 14 ([2]; amber (dark) bottle): 56%; Conversion to Dicamba, Dark, Day 21 ([2]; amber (dark) bottle): 71%; Conversion to Dicamba, Dark, Day 28 ([2]; amber (dark) bottle, Day 28): 87%; Conversion to Dicamba, Light, Day 14 ([2]; quartz tube): 48%; Conversion to Dicamba, Light, Day 21 ([2]; quartz tube): 60%; Conversion to Dicamba, Light, Day 28 ([2]; quartz tube, Day 28): 71%
